Data set [1] has as its target recombinant HIV-1-proteinase (Human immunodeficiency virus type 1 group M subtype B, UniProt P04585). Put plainly: biochemical. Here is the method:
(§1) 1. Assay of peptide cleavage by HIV-proteinase
(§2) Inhibition of HIV-proteinase is measured as described in the literature: A. Richards et al., J. Biol. Chem. 265, 773-7736 (1990) and L. H. Philip et al., Biochem. Biophys. Res. Comun. 171,439-444 (1990). Briefly the peptide H-Lys-Ala-Arg-Val-Leu-Nph-Glu- Ala-Nle-NH2 (where Nph is p-nitrophenylalanine and Nle is norleucine) is used as substrate for recombinant HIV-1- and HIV-2-proteinase. Cleavage occurs between the Leu and Nph residues. The reaction is followed spectrophotometrically by the decrease in extinction at 300 nm which is observed upon cleavage.

Data set [2] addresses T1, recombinant HIV-2-proteinase (Human immunodeficiency virus type 2 subtype A, UniProt P04584).
T1 construct: recombinant HIV-1- and HIV-2-proteinase
Put plainly: Assay of peptide cleavage by HIV-proteinase (HIV-2). It is filed as biochemical. Conditions: substrate H-Lys-Ala-Arg-Val-Leu-Nph-Glu-Ala-Nle-NH2. Here is the method: as §1, §2

Data set [3] has as its system HIV-1 (HTLV IIIB)-induced cytopathic effect in MT4-cells. Put plainly: Cellular assay: inhibition of HIV-1-induced cytopathic effect in MT4-cells (MTT). It is filed as cell-based. To be noted: Human immunodeficiency virus 1, read-out: IC50 in the cellular assay (virus-inhibitory concentration). Here is the method:
Inhibition of the HIV-1 (HTLV IIIB)-induced cytopathic effect is measured in MT4-cells as described in the literature (R. Pauwels et al, J. Virol. Meth. 20 309-321 [1988]). Briefly, an HTLV-1 transformed T4 cell line, MT4, which has been shown previously to be highly permissive to HIV infection, serves as a target cell line. Inhibition of HIV-induced cytopathic effect is used as the end point. The viability of both HIV- and mock-infected cells is assessed spectrophotometrically via the in situ-reduction of 3-(4,5-dimethylthiazol-2-yl)-2,5-diphenyltetrazolium bromide (MTT). The comparison of the effects of various concentrations of the agent on HIV- versus mock-infected cells allows the determination of cytotoxic (TC50) and virus-inhibitory (IC50) concentrations.
For orientation: Cytopathic effects are the visible damage that an infection or toxin causes in cultured cells.

The nature of data set [4]: Assay of oral bioavailability in mice. Also on record: species or system Female Balb/c mice. To be noted: mouse, in vivo. As to the method: As is known from the literature, peptide based drugs characteristically show poor oral bioavailability. Since with HIV patients long term medication with proteinase inhibitors is anticipated, it is important that a useful drug be orally bioavailable. This is one of the main obstacles in the development of effective drugs in this peptidic structural class. […] This can be shown e.g. in the following test:
For peroral administration, a solution of the test substance (25 mg/ml) in a suitable solvent such as Cremophor RH40^R /Maisine^R /propylene glycol / ethanol (38/32/15/15) is prepared. Female Balb/c mice are fasted for 24 hours prior to the start, and throughout the experiment water is given ad libitum. At various times following drug administration, blood samples are obtained by sacrificing animals under anaesthesia by cutting the vena jugularis, followed by cervical dislocation. Samples are collected in heparinized tubes (typically 0.4-0.6 ml). For sample analysis solid phase extraction and HPLC are used. Drug concentration in the samples is calculated by least-squares linear regression analysis of the peak area ratio (inhibitor/internal standard) of spiked blood standards versus concentration. From the concentration versus time data, the "Area Under the Curve" (AUC) value is calculated by the trapezoidal rule.

Another data set addresses T2, renin (Homo sapiens, UniProt P00797).
T2 sequence (P00797 67-406): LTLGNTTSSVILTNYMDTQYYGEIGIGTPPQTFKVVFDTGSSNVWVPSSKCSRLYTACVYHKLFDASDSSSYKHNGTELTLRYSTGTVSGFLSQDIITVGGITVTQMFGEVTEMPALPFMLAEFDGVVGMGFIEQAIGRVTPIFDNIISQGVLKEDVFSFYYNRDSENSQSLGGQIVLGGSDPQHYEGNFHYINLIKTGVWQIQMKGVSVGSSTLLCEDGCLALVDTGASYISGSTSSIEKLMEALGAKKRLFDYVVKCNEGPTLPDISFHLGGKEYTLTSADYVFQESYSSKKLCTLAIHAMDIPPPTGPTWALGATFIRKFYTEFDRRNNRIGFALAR
Put plainly: Inhibition of renin (specificity). It is filed as biochemical.

The target of the next data set is cathepsin D (Homo sapiens, UniProt P07339). Put plainly: Inhibition of cathepsin D (specificity). It is filed as biochemical.
Sequence of cathepsin D (P07339 65-412): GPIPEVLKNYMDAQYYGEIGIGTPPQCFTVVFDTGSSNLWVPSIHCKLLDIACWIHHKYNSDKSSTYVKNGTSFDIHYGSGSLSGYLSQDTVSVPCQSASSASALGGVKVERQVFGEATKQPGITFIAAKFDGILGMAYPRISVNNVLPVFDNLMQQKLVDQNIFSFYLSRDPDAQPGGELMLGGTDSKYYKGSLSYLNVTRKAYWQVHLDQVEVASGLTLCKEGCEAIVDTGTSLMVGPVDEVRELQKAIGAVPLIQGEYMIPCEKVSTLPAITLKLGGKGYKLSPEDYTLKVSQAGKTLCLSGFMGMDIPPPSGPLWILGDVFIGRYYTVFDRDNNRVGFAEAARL

T1 sequence (P04584 514-612 limits assumed): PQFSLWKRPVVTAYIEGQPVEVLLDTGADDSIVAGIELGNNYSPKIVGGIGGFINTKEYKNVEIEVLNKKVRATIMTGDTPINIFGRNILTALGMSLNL

What is called Ki is the equilibrium dissociation constant of an inhibitor or competing ligand from its target. For `COc1ccc(CNC(C(=O)NC2c3ccccc3CC2O)C(O)C(Cc2ccccc2)NC(=O)C(NC(=O)OCc2ccccc2)C(C)(C)C)cc1` [Example 2, 4(S)-(Benzyloxycarbonyl-L-tert-leucinoy)amino-3(S)-hydroxy-2(R)-(4-methoxybenzylamino)-5-phenyl-pentanoic acid 1 (S)-amino-2(R)-hydroxyindan-amide], the Ki came out at 9.5 nM in data set [1] and 50 nM in data set [2]. Also, the IC50 in data set [3] amounted to 250 nM. Moreover, the oral uptake result in data set [4] is “excellent oral uptake”. Moreover, the “inhibition of endogenous proteinase renin” value at renin is “does not inhibit”. Further, the “inhibition of endogenous proteinase cathepsin D” value at cathepsin D is given as “does not inhibit”.

The record behind these values is patent US5538997A, “2,4-diamino-3-hydroxycarboxylic acid derivatives” (Sandoz Ltd., priority 1993, dated 1996).
